Test results: US6586639B2, “Functional alcohol releasing substance” (Kao Corporation, priority 1999, dated 2003)
Values joined by “and” are separate entries in the source; they are usually repeats but may differ in a detail not shown here. Equal entries are not always repeated.

Test system: Aspergillus niger
Experiment: Fungal resistance test on coated test cloth
Type: cell-based
Design: key to Judgment (fungal resistance): NG: Completely no fungal growth; TG: Growth on less than 10% of the surface area; SG: Growth on 10% or more and less than 30% of the surface area; MG: Growth on 30% or more and less than 60% of the surface area; HG: Growth on 60% or more of the surface area
Conditions: cultured 29±1° C. 7 days; for Growth rate (%) Average: average of three test cloths; for Growth rate (%): single test cloths (three per solution), 0.3 ml ethanol solution (A 1.17%, B 1.00%, C 0.300%) coated, dried 48 hours
Method: Each of betaine ester (1), betaine ester (3) and geraniol was dissolved in 99.5% ethanol to prepare solutions having the following concentrations and used as test solutions (A), (B) and (C), respectively.
Test solution (A): betaine ester (1), 1.17% in concentration
Test solution (B): betaine ester (3), 1.00% in concentration
Test solution (C): geraniol, 0.300% in concentration
(1) Preparation of test cloth
A 0.3 ml portion of each test solution or 0.3 ml of 99.5% ethanol used as a control was separately coated on a cotton-polyester mixture test cloth cut into a disc of 25 mm in diameter and then the cloth was dried at 25° C. under 30% relative humidity for 48 hours to be used as a test cloth. Three sheets of the test cloth were prepared for one test solution and used in the test.
(2) Fungal resistance test
A plate agar medium having the following composition was prepared to a thickness of 15 mm in a Petri dish of 150 mm in diameter. The medium was used by sterilizing it in advance at 120° C. for 20 minutes in an autoclave.
Pure water: 1,500 ml, glucose: 15 g, agar: 23 g, inorganic salts stock solution (NH4NO3 90 g, KH2PO4 60 g, MgSO4 7H2O, 15 g, KCl 15 g, pure water 1,000 g): 50 ml
Each test cloth was put on the above medium, and about 1 ml of a spore suspension prepared by dispersing spores of a fungus (Aspergillus niger) in sterile water (containing 0.005% sodium dioctylsulfosuccinate) was sprayed. This was cultured at 29±1° C. for 7 days to carry out comparative test of fungal resistance by inspecting growing condition of the fungus on the periphery or surface of the sample, and the results were evaluated based on the following five step criteria by observing growth condition of the fungus on the test cloth surface with the naked eye and under a microscope. That is, when the fungus is not grown on the surface of a test cloth and also, when the test cloth is peeled from the medium, the fungus is not grown on the backside but forming an inhibition zone, the result is judged as excellent in fungal resistance (NG).
Completely no fungal growth: NG (no growth)
Growth on less than 10% of the surface area: TG (trace of growth)
Growth on 10% or more and less than 30% of the surface area: SG (slight growth)
Growth on 30% or more and less than 60% of the surface area: MG (moderate growth)
Growth on 60% or more of the surface area: HG (heavy growth)

| SMILES | Growth rate (%) Average [%] | Judgment (fungal resistance) | Growth rate (%) | Growth rate (%) (listed as (C)) |
| --- | --- | --- | --- | --- |
| CCCCCCCCCCCCCCCCCC(=O)NCCC[N+](C)(C)CC(=O)OC/C=C(\C)CCC=C(C)C.[Cl-] [betaine ester (1), N,N-dimethyl-N-geranyloxycarbonylmethyl-N-(3-(octadecanoylamino)propyl)ammonium chloride] | 0 | NG | 0 | – |
| CCCCCCCCCCCC(=O)NCCC[N+](C)(C)CC(=O)OC/C=C(\C)CCC=C(C)C.[Cl-] [betaine ester (3), N,N-dimethyl-N-geranyloxycarbonylmethyl-N-(3-(dodecanoylamino)propyl)ammonium chloride] | 0 | NG | 0 | – |
| CC(C)=CCC/C(C)=C/CO [geraniol, reference compound] | 36 | MG (Growth on 30% or more and less than 60% of the surface area) | – | 35% and 32% and 40% |
